Measurements taken from ChEMBL document CHEMBL3137386, “DNDi T. cruzi fenarimol series dataset from which preclinical candidate EPL-BS1246 was identified (see also related datasets CHEMBL2448688 and CHEMBL3137440)”.
pIC50: −log10 of the molar value. Values after ≈ are worked out from the molar mass of the structure shown. Values joined by “and” are separate entries in the source; they are usually repeats but may differ in a detail not shown here. Equal entries are not always repeated.

Tests used:
[1] = test system: Trypanosoma brucei rhodesiense; assay: DNDI: HAT in vitro; assay type: functional, organism-based; conditions: ATCC 30027
[2] = test system: Trypanosoma cruzi; assay: (§1) DNDI: Chagas in vitro; assay type: functional, Tulahuen C4 (LacZ)
[3] = DNDI: Lipophilicity (gLogD) at pH 3; assay type: physicochemical; conditions: buffer
[4] = DNDI: Lipophilicity (gLogD) at pH 7.4; assay type: physicochemical; conditions: buffer
[5] = (§2) DNDI: Cytotoxicity against L-6 rat myoblasts from skeletal muscle; assay type: toxicity, cell-based, Muscle tissue, L6; conditions: rat, L6 rat skeletal muscle myoblasts
[6] = DNDI: Solubility in 0.01M HCl at pH 2 determined by nephelometry; assay type: physicochemical; conditions: for solubility kinetic: 0.01 M HCl
[7] = DNDI: Metabolism; assay type: ADME, Microsome; conditions: human, microsomes; for hepatic extraction ratio: read-out: EH
[8] = biological target: T1, Cytochrome P450 3A4 (Homo sapiens, UniProt P08684); assay: (§3) DNDI: CYP Inhibition; assay type: ADME
T1 sequence (P08684 whole entry): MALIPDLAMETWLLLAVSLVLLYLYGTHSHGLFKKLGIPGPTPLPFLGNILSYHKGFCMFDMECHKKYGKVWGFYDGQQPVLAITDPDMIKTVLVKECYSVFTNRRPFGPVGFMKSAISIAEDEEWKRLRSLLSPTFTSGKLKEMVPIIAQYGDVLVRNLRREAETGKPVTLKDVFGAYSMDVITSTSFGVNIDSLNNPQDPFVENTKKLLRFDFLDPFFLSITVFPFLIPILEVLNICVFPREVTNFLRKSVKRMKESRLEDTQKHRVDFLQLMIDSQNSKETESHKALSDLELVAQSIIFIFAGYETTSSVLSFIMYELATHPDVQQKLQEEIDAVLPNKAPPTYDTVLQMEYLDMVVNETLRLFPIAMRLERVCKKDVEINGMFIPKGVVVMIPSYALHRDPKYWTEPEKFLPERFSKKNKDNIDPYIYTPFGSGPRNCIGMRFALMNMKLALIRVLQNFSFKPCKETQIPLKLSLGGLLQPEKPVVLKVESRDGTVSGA

[9] = test system: Trypanosoma cruzi; assay: as §1; assay type: functional, organism-based, Tulahuen C4 (LacZ)
[10] = test system: L6; assay: as §2; assay type: toxicity, cell-based, Muscle tissue; conditions: l6
[11] = biological target: T1, Cytochrome P450 3A4; assay: as §3; assay type: ADME; remark: listed apart in the source
[12] = DNDI: Solubility in phosphate buffer at pH 6.5 determined by nephelometry; assay type: physicochemical
[13] = Trypanosoma cruzi, Tulahuen C4 (LacZ)

| SMILES | pIC50 [1] | IC90 [2] | chromatographic logD [3] | chromatographic logD [4] | pIC50 [5] | solubility kinetic [6] | Clint [7] | EH [7] | t (1 / 2) [7] | hepatic extraction ratio [7] | pIC50 [8] | IC90 [2, 13] | pIC50 [9, 13] | pIC50 [10] | pIC50 [9] | half-life [7] | microsomal CLint [7] | pIC50 [11] | solubility kinetic [12] | Kinetic ([6]; buffer) |
| --- | --- | --- | --- | --- | --- | --- | --- | --- | --- | --- | --- | --- | --- | --- | --- | --- | --- | --- | --- | --- |
| CS(=O)(=O)c1ccc(N2CCN(C(=O)C(c3ccc(C#N)cc3)c3cccnc3)CC2)cc1 (stereo unspecified) | < 5.00 | > 100 nM and 29.1 nM | 1.8 | 2.3 | < 4.00 | > 100 µg/mL | 15 µL/min/mg and 10 µL/min/mg and < 7 µL/min/mg | 0.36 and < 0.28 | 113 min and 169 min and > 250 min | 0.46 | < 4.70 |  |  |  |  |  |  |  |  |  |
| O=C(c1ccccc1)N1CCN(C(=O)C(c2ccc(Cl)cc2)c2cccnc2)CC1 (stereo unspecified) | < 5.00 |  |  |  | < 4.00 |  |  |  |  |  |  | > 100 nM | 7.31 |  |  |  |  |  |  |  |
| O=C(C(c1ccc(Cl)cc1)c1cccnc1)N1CCN(c2nccs2)CC1 (stereo unspecified) | < 5.00 |  |  |  | < 4.00 |  |  |  |  |  |  | > 100 nM | 7.29 |  |  |  |  |  |  |  |
| CC(C)CN1CCN(C(=O)C(c2ccc(Cl)cc2)c2cccnc2)CC1 (stereo unspecified) | < 5.00 |  |  |  | < 4.00 |  |  |  |  |  |  | > 100 nM | 7.19 |  |  |  |  |  |  |  |
| COCCN1CCN(C(=O)C(c2ccc(Cl)cc2)c2cccnc2)CC1 (stereo unspecified) | < 5.00 |  |  |  | < 4.00 |  |  |  |  |  |  | > 100 nM | < 7.00 |  |  |  |  |  |  |  |
| O=C(C(c1ccc(Cl)cc1)c1cccnc1)N1CCN(Cc2cccc(C(F)(F)F)c2)CC1 (stereo unspecified) | < 5.00 |  |  |  |  |  |  |  |  |  |  | > 100 nM | 7.83 |  |  |  |  |  |  |  |
| N#Cc1ccc(C(C(=O)N2CCN(c3ccc(C(F)(F)F)cc3)CC2)c2cccnc2)cc1 (stereo unspecified) | < 5.00 | 27 nM and 71.5 nM and > 100 nM | 3.5 |  | 4.13 | > 100 µg/mL | 42 µL/min/mg and 38 µL/min/mg | 0.68 and 0.7 | 41 min and 45 min | 0.66 | < 4.70 |  |  | 4.26 | 8.00 and 7.92 and 7.17 | 50 min | 35 µL/min/mg |  |  |  |
| O=C(C(c1ccc(Cl)cc1)c1cccnc1)N1CCN(c2ccc(C(F)(F)F)nc2)CC1 (stereo unspecified) | < 5.00 | > 100 nM and 1030 nM | 3.2 |  | 4.18 | > 100 µg/mL | 36 µL/min/mg and 61 µL/min/mg | 0.77 and 0.7 | 49 min and 28 min | 0.67 | < 4.70 |  |  |  |  | 41 min | 42 µL/min/mg | 4.70 |  |  |
| N#Cc1ccc(C(C(=O)N2CCN(c3ccc(C(F)(F)F)nc3)CC2)c2cccnc2)cc1 (stereo unspecified) | < 5.00 | 81.5 nM | 2.5 | 3 | < 4.00 | > 100 µg/mL | 22 µL/min/mg and 21 µL/min/mg | 0.56 and 0.54 | 77 min and 81 min | 0.4 | < 4.70 | > 100 nM |  |  | 7.26 and < 7.00 and 7.69 | 144 min | 12 µL/min/mg |  | 12.5 µg/mL (≈ 27.7 µM) |  |
| O=C(C(c1ccc(Cl)cc1)c1cccnc1)N1CCN(c2ccc(C(F)(F)F)cn2)CC1 (stereo unspecified) | < 5.00 | > 100 nM and 400 nM | 3.8 |  | 4.24 | > 100 µg/mL | 28 µL/min/mg and 30 µL/min/mg | 0.61 and 0.63 | 63 min and 57 min | 0.7 | < 4.70 |  |  | 4.23 |  | 41 min | 42 µL/min/mg | 5.18 |  | 25 µg/mL |
| N#Cc1ccc(C(C(=O)N2CCN(c3ccc(C(F)(F)F)cn3)CC2)c2cccnc2)cc1 (stereo unspecified) | < 5.00 | 56.5 nM and 46.5 nM and > 100 nM | 3.1 |  | < 4.00 | > 100 µg/mL | 21 µL/min/mg and 23 µL/min/mg | 0.56 and 0.54 | 83 min and 77 min | 0.62 | < 4.70 |  |  | 4.10 | 7.64 and 7.92 and < 7.00 | 60 min | 29 µL/min/mg |  |  |  |
| CS(=O)(=O)c1ccc(N2CCN(C(=O)C(c3ccc(Cl)cc3)c3cccnc3)CC2)cc1 (stereo unspecified) | < 5.00 | 214 nM and > 100 nM | 2.3 | 2.9 | < 4.00 | 25 µg/mL (≈ 53.2 µM) | 84 µL/min/mg and 53 µL/min/mg and 38 µL/min/mg | 0.75 and 0.68 | 21 min and 33 min and 46 min | 0.82 | 4.72 |  |  | 4.21 |  |  |  | 5.15 |  |  |
| O=S(=O)(Cc1ccccc1)Nc1cnccc1N1CCN(c2ccc(C(F)(F)F)cc2)CC1 | < 5.00 |  |  |  | < 4.00 |  |  |  |  |  |  | 29 nM | 7.74 |  |  |  |  |  |  |  |
| CC(C)(C)OC(=O)N1CCN(C(=O)C(c2ccc(C#N)cc2)c2cccnc2)CC1 (stereo unspecified) | < 5.00 |  |  |  | < 4.00 |  |  |  |  |  |  | > 91 nM | 7.18 |  |  |  |  |  |  |  |
| CS(=O)(=O)c1ccc(N2CCN(C(=O)C(c3ccc(Cl)cc3)c3cncnc3)CC2)cc1 (stereo unspecified) | < 5.00 |  | 2.6 | 2.6 | < 4.00 | 25 µg/mL (≈ 53.1 µM) | 34 µL/min/mg and 69 µL/min/mg and 40 µL/min/mg | 0.69 and 0.66 | 25 min and 43 min | 0.79 | < 4.70 | > 100 nM | 7.11 |  | 7.20 and < 7.00 | 50 min |  |  | 6.3 µg/mL (≈ 13.4 µM) |  |
| O=C(C(c1ccc(Cl)cc1)c1cncnc1)N1CCN(c2ccc(C(F)(F)F)nc2)CC1 (stereo unspecified) | < 5.00 |  | 3.4 | 3.3 | < 4.00 | 12.5 µg/mL (≈ 27.1 µM) |  |  |  | 0.76 | < 4.70 | > 100 nM | 6.60 |  |  | 31 min | 56 µL/min/mg |  | 12.5 µg/mL (≈ 27.1 µM) |  |
| O=C(C(c1ccc(Cl)cc1)c1cncnc1)N1CCN(c2ccc(C(F)(F)F)cn2)CC1 (stereo unspecified) | < 5.00 |  | 3.9 | 3.9 | 4.28 | 50 µg/mL (≈ 108 µM) |  |  |  | 0.81 | 4.74 | > 100 nM | 6.79 |  |  | 23 min | 76 µL/min/mg |  | 6.3 µg/mL (≈ 13.6 µM) |  |
| O=C(C(c1ccc(Cl)cc1)c1cncnc1)N1CCN(c2ccc(C(F)(F)F)cc2)CC1 (stereo unspecified) | < 5.00 |  | 4.2 | 4.2 | 4.29 | 3.1 µg/mL (≈ 6.73 µM) |  |  |  | 0.77 | 4.70 | > 100 nM | 6.93 |  |  | 30 min | 59 µL/min/mg |  | 3.1 µg/mL (≈ 6.73 µM) |  |
| O=C(c1ccc(Cl)cc1)N1CCN(C(=O)C(c2ccc(Cl)cc2)c2cccnc2)CC1 (stereo unspecified) | < 5.00 |  |  |  | < 4.00 |  |  |  |  |  |  | > 100 nM | 7.66 |  |  |  |  |  |  |  |
| O=C(C(c1ccc(Cl)cc1)c1cccnc1)N1CCN(Cc2ccccc2C(F)(F)F)CC1 (stereo unspecified) | < 5.00 |  |  |  | 4.27 |  |  |  |  | 0.96 | 4.82 | > 100 nM | < 7.00 |  |  | 4 min | 460 µL/min/mg |  |  |  |
